Holding throughout (test): relative viability (nuclei count vs DMSO), 5 days (fraction); higher = more cells survive
Compound in assay [1]: COc1cccc2c1C(=O)c1c(O)c3c(c(O)c1C2=O)C[C@@](O)(C(=O)CO)C[C@@H]3O[C@H]1C[C@H](N)[C@H](O)[C@H](C)O1 [Doxorubicin] + C[C@]1(O)C[C@@H](c2nc(-c3ccc4ccc(-c5ccccc5)nc4c3)c3c(N)nccn32)C1 [Linsitinib] (partner 1 µM)
Summed up: (§1)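 Lung cancer cell lines in 1536-well plates got either a single drug or a fixed anchor-drug dose together with five library-drug doses (not always all listed) in √10 steps, by pin tool, on the day after seeding. Nuclei were counted after 5 days, and relative viability is the treated-to-vehicle ratio of nuclei counts. Values are medians of duplicate plates.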

Compound in assay [2]: COC1=C(C=C(C=C1)C2=CC3=NC=CN3C(=N2)NC4=C(C=CC=N4)C(=O)N)OC [BAY61-3606] + O=C(CCCCCCC(=O)Nc1ccccc1)NO [Vorinostat] (partner 1 µM)
A digest of the protocol: as §1

Compound in assay [3]: COC1=C(C=C(C=C1)C2=CC3=NC=CN3C(=N2)NC4=C(C=CC=N4)C(=O)N)OC [BAY61-3606] + COc1cccc2cc(-c3nc([C@H]4CC[C@H](C(=O)O)CC4)n4ncnc(N)c34)[nH]c12 [OSI-027] (partner 0.5 µM)
A digest of the protocol:
as §1

Compound in assay [4]: COc1cccc2c1C(=O)c1c(O)c3c(c(O)c1C2=O)C[C@@](O)(C(=O)CO)C[C@@H]3O[C@H]1C[C@H](N)[C@H](O)[C@H](C)O1 [Doxorubicin] + CS(=O)(=O)N1CCN(Cc2cc3nc(-c4cccc5[nH]ncc45)nc(N4CCOCC4)c3s2)CC1 [Pictilisib] (partner 1 µM)
Summed up:
as §1

With UMC-11, the relative viability in assay [1] (first compound 0.001 µM) was determined as 1.1; in assay [1] (first compound 0.003162 µM), 1.13; in assay [1] (first compound 0.01 µM), 1.09; in assay [1] (first compound 0.03162 µM), 0.803; in assay [1] (first compound 0.1 µM), 0.875; in assay [2] (first compound 0.02 µM), 0.43. The relative viability in assay [2] (first compound 0.06325 µM) stood at 0.385; in assay [2] (first compound 0.2 µM) it was 0.436; in assay [2] (first compound 0.6325 µM), 0.465; in assay [2] (first compound 2 µM) it was 0.326; in assay [3] (first compound 0.02 µM), 0.544; in assay [3] (first compound 0.06325 µM), 0.467. Moreover, the relative viability is 0.476 in assay [3] (first compound 0.2 µM); 0.461 in assay [3] (first compound 0.6325 µM); 0.375 in assay [3] (first compound 2 µM); 0.849 in assay [4] (first compound 0.001 µM); 0.927 in assay [4] (first compound 0.003162 µM); 0.769 in assay [4] (first compound 0.01 µM). For the same cell line, the relative viability in assay [4] (first compound 0.03162 µM) stood at 0.445; in assay [4] (first compound 0.1 µM) it was 0.369.

These data come from the supplement of paper PMC10307832.
